The values below are quoted from earlier work in patent US20250049842A1, “THERAPEUTIC BLOOD-ACID-SHIFTING COMPOSITIONS AND METHODS” (priority 2023, published 2025).

The conditions of the data set: for pKa (pKa1, first or only dissociation): step (1) HA/A−; for pKa2 (second dissociation): step (2).

With `Nc1nc2ncc(CNc3ccc(C(=O)N[C@@H](CCC(=O)O)C(=O)O)cc3)nc2c(=O)[nH]1` [Folic Acid, reference compound], the “pKa (pKa1, first or only dissociation)” value is recorded as 1.63 and the “pKa2 (second dissociation)” value was 2.71. Besides, the “pKa (third dissociation)” value (step (3)) was 4.68. In addition, the “pKa (fourth dissociation)” value (step (4)) was 7.53. On to `O=NO` [Nitrous], for which the “pKa (pKa1, first or only dissociation)” value is listed as 3.39.

`[O-][Cl+3]([O-])([O-])O` [Perchloric Acid]: the “pKa (pKa1, first or only dissociation)” value is listed as less than 1. As to `O=S(O)O` [Sulfurous Acid], the “pKa (pKa1, first or only dissociation)” value is 1.18 and the “pKa2 (second dissociation)” value is reported as 6.91. Turning to `CC(=O)C(=O)O` [Pyruvic Acid], the “pKa (pKa1, first or only dissociation)” value is 2.49. Regarding `[O-][Cl+2]([O-])O` [Chloric Acid], the “pKa (pKa1, first or only dissociation)” value is on record as less than 1. On to `O=[N+]([O-])O` [Nitric Acid], for which the “pKa (pKa1, first or only dissociation)” value was less than 1.
